Assay results reported in patent US11344517B2, “Injectable supersaturated acetaminophen solution for spinal administration” (priority 2012, dated 2022).
Values after ≈ are worked out from the molar mass of the structure shown. Values joined by “and” are separate entries in the source; they are usually repeats but may differ in a detail not shown here. Equal values may be shown once.

Columns and labels:
[1] = system: post-surgical pain in rats; type: in vivo; settings: 4 hours after the incision, IT acetaminophen 200 μg, chloroprocaine 3% 20 μL; for pain threshold following mechanical stimulation: individual animals
Experimental: The efficacy of the acetaminophen supersaturated solution administered by spinal administration (IT) was tested with explorative experiments in a model of post-surgical pain in rats in combination with a solution of chloroprocaine 3%.
The post-surgical pain was induced by means of incision and subsequent suture of the subplantar region of the rear left paw, as described by Timothy J. Brennan (1996).
The pain threshold following mechanical stimulation (expressed in grams) was measured 4 hours after the incision. Complete reduction of the anaesthetic effect of the spinal chloroprocaine is expected within this period of time. The reduction of the pain threshold is considered to be an indicator of pain and hyperalgesia of the zone affected by surgical intervention.

[2] = system: post-surgical pain in rats; type: in vivo; settings: IT chloroprocaine 3% 20 μL, after 4 hours
[3] = Solubility of acetaminophen at 20° C.; type: physicochemical; settings: water
[4] = system: oedema at the site of inflammation induced by carrageenan; test: Development of oedema (paw volume), carrageenan model; type: in vivo, mice; settings: for Paw volume (oedema): mice, individual animals
Experimental: The efficacy of the acetaminophen supersaturated solution administered by spinal administration (IT) was tested by means of explorative experiments in a model of inflammatory pain in mice, induced by means of intraplantar injection (injection in the rear left paw, referred to hereinafter as the “site of inflammation”) of carrageenan (50 μl 1%).
The development of oedema at the site of inflammation was measured and expressed as an increase of volume (mL) of the site of inflammation.
Spinal administration in the mouse was carried out as described by Fairbanks (2003).

SMILES: CCN(CC)CCOC(=O)c1ccc(N)cc1Cl [Chloroprocaine, chloroprocaine]
- effect on pain threshold / post-surgical pain [1]: did not change the pain threshold
- pain threshold following mechanical stimulation [1]: 23.60 grams and 22.75 grams and 19.75 grams and 24.25 grams
- recovery of walking and tension of the rear limbs [2]: complete recovery in terms of walking and tension of the rear limbs

SMILES: CC(=O)Nc1ccc(O)cc1 [Acetaminophen, acetyl-p-aminophenol]
- solubility [3]: ~13 mg/mL (≈ 86 mM)
- Paw volume (oedema) ([4]; 10 μg IT, 2 hours after carrageenan): 0.43 mL and 0.36 mL (2×) and 0.38 mL and 0.37 mL (2×) and 0.44 mL
- Paw volume (oedema) ([4]; 10 μg IT, 4 hours after carrageenan): 0.39 mL and 0.36 mL and 0.34 mL and 0.38 mL and 0.44 mL (2×) and 0.41 mL
- Paw volume (oedema) ([4]; 10 μg IT, 6 hours after carrageenan): 0.44 mL and 0.38 mL and 0.33 mL (2×) and 0.37 mL and 0.45 mL and 0.36 mL
- Paw volume (oedema) ([4]; 10 μg IT, 24 hours after carrageenan): 0.47 mL and 0.4 mL and 0.46 mL and 0.37 mL and 0.5 mL and 0.42 mL (2×)
- Paw volume (oedema) ([4]; 10 μg IT, basal): 0.29 mL (2×) and 0.24 mL and 0.2 mL and 0.21 mL and 0.26 mL and 0.22 mL
- Paw volume (oedema) ([4]; 100 μg IT, 2 hours after carrageenan): 0.32 mL and 0.34 mL and 0.33 mL (3×) and 0.37 mL and 0.36 mL
- Paw volume (oedema) ([4]; 100 μg IT, 4 hours after carrageenan): 0.35 mL (2×) and 0.37 mL and 0.38 mL (2×) and 0.36 mL and 0.34 mL
- Paw volume (oedema) ([4]; 100 μg IT, 6 hours after carrageenan): 0.38 mL (2×) and 0.4 mL (2×) and 0.39 mL and 0.43 mL and 0.35 mL
- Paw volume (oedema) ([4]; 100 μg IT, 24 hours after carrageenan): 0.33 mL and 0.41 mL and 0.42 mL and 0.44 mL and 0.47 mL and 0.45 mL and 0.46 mL
- Paw volume (oedema) ([4]; 100 μg IT, basal): 0.27 mL and 0.28 mL and 0.29 mL and 0.24 mL and 0.26 mL and 0.25 mL and 0.18 mL
- reduction of the development of oedema at the site of inflammation ([4]; 100 μg per mouse IT, first two hours following induction): approximately 20%
- pain threshold following mechanical stimulation [1]: 22.75 grams and 24.90 grams and 24.00 grams and 28.00 grams and 38.75 grams
